# Patent publication US9856254B2, “Alkoxy substituted imidazoquinolines” (3M INNOVATIVE PROPERTIES COMPANY, priority 2003, dated 2018)
row,SMILES,melting point [°C]
1,"CCCn1c(COC)nc2c(N)nc3ccc(OCC4CCCN(C)C4)cc3c21 (centres unmarked) [Example 558, 2-Methoxymethyl-8-(1-methylpiperidin-3-ylmethoxy)-1-propyl-1H-imidazo[4,5-c]quinolin-4-amine]",194 to 196
2,"CCCn1c(COCC)nc2c(N)nc3ccc(OCCCN4CCCC4=O)cc3c21 [Example 405, 1-(3-{[4-Amino-2-(ethoxymethyl)-1-propyl-1H-imidazo[4,5-c]quinolin-8-yl]oxy}propyl)pyrrolidin-2-one]",188.5 to 190
3,"CCCCc1nc2c(N)nc3ccc(OCCC4CCN(C(=O)OC(C)(C)C)CC4)cc3c2n1C [Example 37, tert-Butyl 4-[2-(4-amino-2-butyl-1-methyl-1H-imidazo[4,5-c]quinolin-8-yloxy)ethyl]piperidine-1-carboxylate]",171.1 to 173.2
4,"CCc1nc2c(N)nc3cc(OCC(=O)N4CCOCC4)ccc3c2n1CC(C)C [Example 30, 2-Ethyl-1-(2-methylpropyl)-7-(2-morpholin-4-yl-2-oxoethoxy)-1H-imidazo[4,5-c]quinolin-4-amine]",219 to 220
5,"CCCCc1nc2c(N)nc3ccc(OCC(=O)N4CCCCC4)cc3c2n1C [Example 33, 2-Butyl-1-methyl-8-(2-oxo-2-piperidin-1-ylethoxy)-1H-imidazo[4,5-c]quinolin-4-amine]",222.5 to 223.4
6,"CCCn1c(CCOC)nc2c(N)nc3cc(OC4CCN(C(=O)OC(C)(C)C)CC4)ccc3c21 [Example 387, tert-Butyl 4-{[4-amino-2-(2-methoxyethyl)-1-propyl-1H-imidazo[4,5-c]quinolin-7-yl]oxy}piperidine-1-carboxylate]",173 to 175
7,"CCCc1nc2c(N)nc3cc(OCCC4CCN(C(=O)OC(C)(C)C)CC4)ccc3c2n1CC(C)C [Example 22, tert-Butyl 4-(2-{[4-amino-1-(2-methylpropyl)-2-propyl-1H-imidazo[4,5-c]quinolin-7-yl]oxy}ethyl)piperidine-1-carboxylate]",196.4 to 199.6
8,"CCCCc1nc2c(N)nc3ccc(OCC(=O)N(CC)CC)cc3c2n1C [Example 35, 2-[(4-Amino-2-butyl-1-methyl-1H-imidazo[4,5-c]quinolin-8-yl)oxy]-N,N-diethylacetamide]",185.9 to 188.1
9,"CCCCc1nc2c(N)nc3ccc(OCCC4CCN(C(=O)C(C)C)CC4)cc3c2n1C [Example 39, 1-{4-[2-(4-Amino-2-butyl-1-methyl-1H-imidazo[4,5-c]quinolin-8-yloxy)ethyl]piperidin-1-yl}-2-methylpropan-1-one]",189.4 to 192.6
10,"CCCn1c(COCC)nc2c(N)nc3ccc(OC4CCOC4)cc3c21 (centres unmarked) [Example 406, 2-(Ethoxymethyl)-1-propyl-8-(tetrahydrofuran-3-yloxy)-1H-imidazo[4,5-c]quinolin-4-amine]",173 to 175

# Next, values leading:
row,melting point [°C],SMILES
1,194 to 198,"CCCc1nc2c(N)nc3cc(OCCCNC(=O)NS(=O)(=O)c4ccc(F)cc4)ccc3c2n1CC(C)C [Example 21, N-{[(3-{[4-Amino-1-(2-methylpropyl)-2-propyl-1H-imidazo[4,5-c]quinolin-7-yl]oxy}propyl)amino]carbonyl}-4-fluorobenzenesulfonamide]"
2,190.5 to 192,"CCCn1c(CCO)nc2c(N)nc3cc(OCCCNC(=O)C(C)C)ccc3c21 [Example 395, N-(3-{[4-Amino-2-(2-hydroxyethyl)-1-propyl-1H-imidazo[4,5-c]quinolin-7-yl]oxy}propyl)-2-methylpropanamide]"
3,179 to 181,"CCCc1nc2c(N)nc3cc(OCCCNC(=O)C(C)C)ccc3c2n1CC(C)C [Example 15, N-{3-[4-Amino-1-(2-methylpropyl)-2-propyl-1H-imidazo[4,5-c]quinolin-7-yloxy]propyl}-2-methylpropanamide]"
4,145,"CCCc1nc2c(N)nc3cc(OCCCNC(=O)N4CCOCC4)ccc3c2n1CC(C)C [Example 20, N-(3-{[4-Amino-2-propyl-1-(2-methylpropyl)-1H-imidazo[4,5-c]quinolin-7-yl]oxy}propyl)morpholine-4-carboxamide]"
